Results as given in ChEMBL document CHEMBL4138299, “Discovery of 3,3'-Spiro[Azetidine]-2-oxo-indoline Derivatives as Fusion Inhibitors for Treatment of RSV Infection” (ACS Med Chem Lett, 2018).

Key:
[1] = Cytotoxicity against human Hep2 cells after 5 days by CCK8 assay; conditions: HEp-2 cells
[2] = Volume of distribution in Balb/c mouse at 1 mg/kg, iv administered as single bolus dose by LC-MS/MS analysis; conditions: in vivo
Human orthopneumovirus [3] = test: (§1) Antiviral activity against human respiratory syncytial virus A2 infected in Balb/c mouse assessed as reduction in lung viral load at 15 mg/kg, po administered once daily pretreated for 1 hr on day 0 followed by viral infection and subsequent compound dosing for 3 days measured after 1 day post last dose by plaque assay; format: functional
[4] = Half life in Balb/c mouse at 1 mg/kg, iv administered as single bolus dose by LC-MS/MS analysis; conditions: in vivo
in vivo [5] = conditions: Balb/c, mouse, iv, 1 mg/kg
Description: AUC (0 to infinity) in Balb/c mouse at 1 mg/kg, iv administered as single bolus dose by LC-MS/MS analysis

Human orthopneumovirus [6] = test: as §1, with “infected in po dosed Balb/c mouse” for “infected in Balb/c mouse”, “viral load administered once” for “viral load at 15 mg/kg, po administered once”; format: functional, organism-based
Human orthopneumovirus [7] = test: as §1, with “5” for “15”; format: functional
in vivo [8] = conditions: Balb/c, mouse, po, 10 mg/kg
Description: Oral bioavailability in Balb/c mouse at 10 mg/kg administered as single dose via gavage by LC-MS/MS analysis

Human orthopneumovirus [9] = test: as §1, with “50” for “15”; format: functional
in vivo [10] = conditions: Balb/c, mouse, po, 10 mg/kg; remark: listed apart in the source
Description: AUC (0 to infinity) in Balb/c mouse at 10 mg/kg, po administered as single dose via gavage by LC-MS/MS analysis

in vivo [11] = conditions: Balb/c, mouse, po, 10 mg/kg; remark: listed apart in the source
Description: Cmax in Balb/c mouse at 10 mg/kg, po administered as single dose via gavage by LC-MS/MS analysis

[12] = Clearance in Balb/c mouse at 1 mg/kg, iv administered as single bolus dose by LC-MS/MS analysis; conditions: in vivo
in vivo [13] = conditions: Balb/c, mouse, po, 10 mg/kg; remark: listed apart in the source
Description: Tmax in Balb/c mouse at 10 mg/kg, po administered as single dose via gavage by LC-MS/MS analysis

**Q.** With `N#Cc1cn(Cc2nc3ccccc3n2CCCCO)c2ccccc12` as the molecule, how does the CC50 at 120 h [1] read?
**A.** Its CC50 at 120 h is over 100 µM.

**Q.** For `O=C1N(Cc2nc3cc(Br)ccc3n2CCCCO)c2ccccc2C12CCOC2` (stereo unspecified), which CC50 at 120 h [1] is on record?
**A.** The CC50 at 120 h was over 100 µM.

**Q.** With `O=C1N(Cc2nc3cc(Br)ccc3n2CCCCO)c2ccccc2C12CCOCC2` as the molecule, how does the CC50 at 120 h [1] read?
**A.** Its CC50 at 120 h is over 100 µM.

**Q.** For `O=c1oc2ccccc2n1Cc1nc2ccccc2n1CCCCO`, which CC50 at 120 h [1] is on record?
**A.** The CC50 at 120 h was over 100 µM.

**Q.** For `CN1CCC2(CC1)C(=O)N(Cc1nc3cc(Br)ccc3n1CCCCO)c1ccccc12`, which CC50 at 120 h [1] is on record?
**A.** Its CC50 at 120 h is over 100 µM.

**Q.** Which CC50 at 120 h [1] does the source give for `CC(C)OC(=O)N1CCC2(C1)C(=O)N(Cc1nc3cc(Br)ccc3n1CCCCO)c1ccccc12` (stereo unspecified) here?
**A.** Its CC50 at 120 h is over 100 µM.

**Q.** With `O=C1N(Cc2nc3cc(Br)ccc3n2CCCCO)c2ccccc2C12CCN(C1COC1)CC2` as the molecule, how does the CC50 at 120 h [1] read?
**A.** The CC50 at 120 h was over 100 µM.

**Q.** With `CC1(C)C(=O)N(Cc2nc3ccccc3n2CCCCO)c2ccccc21` as the molecule, how does the CC50 at 120 h [1] read?
**A.** Its CC50 at 120 h is over 100 µM.

**Q.** For `OCCCCn1c(Cn2ncc3ccccc32)nc2ccccc21`, which CC50 at 120 h [1] is on record?
**A.** The CC50 at 120 h was over 100 µM.

**Q.** Which CC50 at 120 h [1] does the source give for `OCCCCn1c(Cn2c(-c3cscn3)nc3ccccc32)nc2ccccc21` here?
**A.** The CC50 at 120 h was over 100 µM.

**Q.** Which CC50 at 120 h [1] does the source give for `OCCCCn1c(Cn2ncc3ccncc32)nc2ccccc21` here?
**A.** Its CC50 at 120 h is over 100 µM.

**Q.** Which CC50 at 120 h [1] does the source give for `CS(=O)(=O)N1CCC2(C1)C(=O)N(Cc1nc3cc(Br)ccc3n1CCCCO)c1ccccc12` (stereo unspecified) here?
**A.** Its CC50 at 120 h is over 100 µM.

**Q.** With `O=C1N(Cc2nc3cc(Br)ccc3n2CCCCO)c2ccccc2C12CC2` as the molecule, how does the CC50 at 120 h [1] read?
**A.** The CC50 at 120 h was over 100 µM.

**Q.** For `OCCCCn1c(Cn2c(C(F)(F)F)nc3ccccc32)nc2ccccc21`, which CC50 at 120 h [1] is on record?
**A.** The CC50 at 120 h was over 100 µM.

**Q.** With `CC(C)C(=O)N1CCC2(C1)C(=O)N(Cc1nc3cc(Br)ccc3n1CCCCO)c1ccccc12` (stereo unspecified) as the molecule, how does the CC50 at 120 h [1] read?
**A.** Its CC50 at 120 h is over 100 µM.

**Q.** With `Cc1cc(=O)n(Cc2nc3ccccc3n2CCCCO)c2ccccc12` as the molecule, how does the CC50 at 120 h [1] read?
**A.** The CC50 at 120 h was over 100 µM.

**Q.** For `O=C1N(Cc2nc3cc(C4CCCCC4)ccc3n2CCCCO)c2ccccc2C12CC2`, which CC50 at 120 h [1] is on record?
**A.** The CC50 at 120 h was over 100 µM.

**Q.** With `O=C1N(Cc2nc3cc(I)ccc3n2CCCCO)c2ccccc2C12CC2` as the molecule, how does the CC50 at 120 h [1] read?
**A.** The CC50 at 120 h was over 100 µM.

**Q.** With `Cc1nn(Cc2nc3ccccc3n2CCCCO)c2c1CCCC2` as the molecule, how does the CC50 at 120 h [1] read?
**A.** Its CC50 at 120 h is over 100 µM.

**Q.** For `Cc1c2c(nn1Cc1nc3ccccc3n1CCCCO)CCCC2`, which CC50 at 120 h [1] is on record?
**A.** The CC50 at 120 h was over 100 µM.

**Q.** For `O=C1N(Cc2nc3ccccc3n2CCCCO)c2cnccc2C12CC2`, which CC50 at 120 h [1] is on record?
**A.** Its CC50 at 120 h is over 100 µM.

**Q.** For `NCc1ccc2c(c1)nc(CN1C(=O)C3(CC3)c3ccccc31)n2CCCCO`, which CC50 at 120 h [1] is on record?
**A.** The CC50 at 120 h was over 100 µM.

**Q.** With `O=C1NC(=O)C2(N1)C(=O)N(Cc1nc3cc(Br)ccc3n1CCCCO)c1ccccc12` (stereo unspecified) as the molecule, how does the CC50 at 120 h [1] read?
**A.** The CC50 at 120 h was over 100 µM.

**Q.** With `O=C1N(Cc2nc3cc(Cl)ccc3n2CCCCO)c2ccccc2C12CC2` as the molecule, how does the CC50 at 120 h [1] read?
**A.** The CC50 at 120 h was over 100 µM.

**Q.** With `OCCCCn1c(Cn2ccc3ccncc32)nc2ccccc21` as the molecule, how does the CC50 at 120 h [1] read?
**A.** The CC50 at 120 h was over 100 µM.

**Q.** With `Cc1nn(Cc2nc3ccccc3n2CCCCO)c2ccccc12` as the molecule, how does the CC50 at 120 h [1] read?
**A.** The CC50 at 120 h was over 100 µM.

**Q.** With `O=C1N(Cc2nc3cc(F)ccc3n2CCCCO)c2ccccc2C12CC2` as the molecule, how does the CC50 at 120 h [1] read?
**A.** Its CC50 at 120 h is over 100 µM.

**Q.** For `CC1CC(=O)N(Cc2nc3ccccc3n2CCCCO)c2ccccc2N1` (stereo unspecified), which CC50 at 120 h [1] is on record?
**A.** The CC50 at 120 h was over 100 µM.

**Q.** For `CN1CC2(C1)C(=O)N(Cc1nc3cc(Br)ccc3n1CCCCO)c1ccccc12`, which CC50 at 120 h [1] is on record?
**A.** The CC50 at 120 h was over 100 µM.

**Q.** Which CC50 at 120 h [1] does the source give for `O=C1N(Cc2nc3ccccc3n2CCCCO)c2ccccc2C12CC2` here?
**A.** Its CC50 at 120 h is over 100 µM.

**Q.** Which CC50 at 120 h [1] does the source give for `N#Cc1ccc2c(c1)nc(CN1C(=O)C3(CC3)c3ccccc31)n2CCCCO` here?
**A.** Its CC50 at 120 h is over 100 µM.

**Q.** With `O=C1N(Cc2nc3cc(Br)ccc3n2CCCCO)c2ccccc2C12CSC2` as the molecule, how does the CC50 at 120 h [1] read?
**A.** The CC50 at 120 h was over 100 µM.

**Q.** For `O=C1N(Cc2nc3cc(Br)ccc3n2CCCCO)c2ccccc2C12CNC2`, which CC50 at 120 h [1] is on record?
**A.** Its CC50 at 120 h is over 100 µM.

**Q.** Which CC50 at 120 h [1] does the source give for `O=C1N(Cc2nc3ccccc3n2CCCCO)c2cc(F)ccc2C12CC2` here?
**A.** Its CC50 at 120 h is over 100 µM.

**Q.** With `Cc1nc(=O)n(Cc2nc3ccccc3n2CCCCO)c2ccccc12` as the molecule, how does the CC50 at 120 h [1] read?
**A.** Its CC50 at 120 h is over 100 µM.

**Q.** With `CC(C)OC(=O)N1CC2(C1)C(=O)N(Cc1nc3cc(Br)ccc3n1CCCCO)c1ccccc12` as the molecule, how does the CC50 at 120 h [1] read?
**A.** Its CC50 at 120 h is over 100 µM.

**Q.** What about the Vd [2] of the same molecule?
**A.** Its Vd is 1.6 L/kg.

**Q.** And the “log(activity)” value (Human orthopneumovirus [3])?
**A.** Its value is 2.05.

**Q.** And the half-life [4]?
**A.** The half-life was 84 min.

**Q.** What about the AUC(0-inf) (in vivo [5]) of the same molecule?
**A.** The AUC(0-inf) was 1.13 µM·h.

**Q.** What about the Activity (Human orthopneumovirus [6]) of the same molecule?
**A.** The Activity was “Dose-dependent effect”.

**Q.** What about the “log(activity)” value (Human orthopneumovirus [7]) of the same molecule?
**A.** The value was 1.64.

**Q.** And the bioavailability (in vivo [8])?
**A.** Its bioavailability is 71%.

**Q.** What about the “log(activity)” value (Human orthopneumovirus [9]) of the same molecule?
**A.** The value was 3.91.

**Q.** What about the AUC(0-inf) (in vivo [10]) of the same molecule?
**A.** Its AUC(0-inf) is 8.08 µM·h.

**Q.** What about the Cmax (in vivo [11]) of the same molecule?
**A.** Its Cmax is 3.32 µM.

**Q.** And the clearance [12]?
**A.** The clearance was 28 mL/min/kg.

**Q.** What about the Tmax (in vivo [13]) of the same molecule?
**A.** Its Tmax is 15 min.

**Q.** Which CC50 at 120 h [1] does the source give for `O=C1N(Cc2nc3cc(C(F)(F)F)ccc3n2CCCCO)c2ccccc2C12CC2` here?
**A.** The CC50 at 120 h was over 100 µM.

**Q.** For `OCCCCn1c(Cn2c3c(c4ccccc42)CCNC3)nc2ccccc21`, which CC50 at 120 h [1] is on record?
**A.** Its CC50 at 120 h is over 100 µM.

**Q.** Which CC50 at 120 h [1] does the source give for `O=C1N(Cc2nc3ccccc3n2CCCCO)CN(c2ccccc2)C12CCNCC2` here?
**A.** Its CC50 at 120 h is over 100 µM.

**Q.** For `CS(=O)(=O)N1CC2(C1)C(=O)N(Cc1nc3cc(Br)ccc3n1CCCCO)c1ccccc12`, which CC50 at 120 h [1] is on record?
**A.** The CC50 at 120 h was over 100 µM.

**Q.** Which CC50 at 120 h [1] does the source give for `CN1CCOC2(C1)C(=O)N(Cc1nc3cc(Br)ccc3n1CCCCO)c1ccccc12` (stereo unspecified) here?
**A.** Its CC50 at 120 h is over 100 µM.

**Q.** For `CC(C)C(=O)N1CC2(C1)C(=O)N(Cc1nc3cc(Br)ccc3n1CCCCO)c1ccccc12`, which CC50 at 120 h [1] is on record?
**A.** Its CC50 at 120 h is over 100 µM.

**Q.** For `Cc1ccc2c(c1)nc(CN1C(=O)C3(CC3)c3ccccc31)n2CCCCO`, which CC50 at 120 h [1] is on record?
**A.** The CC50 at 120 h was over 100 µM.

**Q.** Which CC50 at 120 h [1] does the source give for `O=C1N(Cc2nc3cc(Br)ccc3n2CCCCO)c2ccccc2C12CS(=O)(=O)C2` here?
**A.** Its CC50 at 120 h is over 100 µM.
